Source: patent US20220281848A1, “PYRAZOLE-SUBSTITUTED PYRROLIDINONES AS HERBICIDES” (FMC Corporation, priority 2019, published 2022)

System: plants
Assay: Test D pre-emergence, other plants of Tables D1 and D3
Format: in vivo
Settings: for damage to plant (100=total damage to plant; 0=no damage to plant), SORVU: preemergent, 20 DAA; for damage to plant, ALOMY / damage to plant, AVEFA / damage to plant, BEAVA / damage to plant, BROTE / damage to plant, BRSNN / damage to plant, CHEAL / damage to plant, GALAP / damage to plant, HORVW / damage to plant, KCHSC / damage to plant, LOLPE / damage to plant, POAAN / damage to plant, POLCO / damage to plant, SINAR / damage to plant, STEME / damage to plant, VERPE: pre-emergence, 100=total damage, 0=no damage
Summary of the method: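 Damage was rated visually from 0 (none) to 100 (total), at 20 DAA for pre-emergence and 15 d for post-emergence. Plants grew from safener-treated seed in a glasshouse at 24/18° C. or 20/16° C. day/night, 65% humidity, watered twice daily.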

CN1C[C@H](c2nn(C)c3c(F)cccc23)[C@@H](C(=O)Nc2cccc(F)c2F)C1=O [Compound 2]
damage to plant (100=total damage to plant; 0=no damage to plant), SORVU (rate 130): 0
damage to plant (100=total damage to plant; 0=no damage to plant), SORVU (rate 250): 0
damage to plant (100=total damage to plant; 0=no damage to plant), SORVU (rate 500): 0
damage to plant, ALOMY (rate 15, 20 DAA): 0
damage to plant, AVEFA (rate 15, 20 DAA): 0
damage to plant, BEAVA (rate 15, 20 DAA): 0
damage to plant, BROTE (rate 15, 20 DAA): 0
damage to plant, BRSNN (rate 15, 20 DAA): 0
damage to plant, CHEAL (rate 15, 20 DAA): 0
damage to plant, GALAP (rate 15, 20 DAA): 0
damage to plant, HORVW (rate 15, 20 DAA): 0
damage to plant, KCHSC (rate 15, 20 DAA): 0
damage to plant, LOLPE (rate 15, 20 DAA): 0
damage to plant, POAAN (rate 15, 20 DAA): 0
damage to plant, POLCO (rate 15, 20 DAA): 0
damage to plant, SINAR (rate 15, 20 DAA): 0
damage to plant, STEME (rate 15, 20 DAA): 0
damage to plant, VERPE (rate 15, 20 DAA): 0
damage to plant, ALOMY (rate 30, 20 DAA): 0
damage to plant, AVEFA (rate 30, 20 DAA): 0
damage to plant, BEAVA (rate 30, 20 DAA): 0
damage to plant, BROTE (rate 30, 20 DAA): 0
damage to plant, BRSNN (rate 30, 20 DAA): 0
damage to plant, CHEAL (rate 30, 20 DAA): 0
damage to plant, GALAP (rate 30, 20 DAA): 0
damage to plant, HORVW (rate 30, 20 DAA): 0
damage to plant, KCHSC (rate 30, 20 DAA): 0
damage to plant, LOLPE (rate 30, 20 DAA): 0
damage to plant, POAAN (rate 30, 20 DAA): 0
damage to plant, POLCO (rate 30, 20 DAA): 0
damage to plant, SINAR (rate 30, 20 DAA): 0
damage to plant, STEME (rate 30, 20 DAA): 0
damage to plant, VERPE (rate 30, 20 DAA): 0
damage to plant, ALOMY (rate 60, 20 DAA): 0
damage to plant, AVEFA (rate 60, 20 DAA): 0
damage to plant, BEAVA (rate 60, 20 DAA): 0
damage to plant, BROTE (rate 60, 20 DAA): 0
damage to plant, BRSNN (rate 60, 20 DAA): 0
damage to plant, CHEAL (rate 60, 20 DAA): 0
damage to plant, GALAP (rate 60, 20 DAA): 0
damage to plant, HORVW (rate 60, 20 DAA): 0
damage to plant, KCHSC (rate 60, 20 DAA): 0
damage to plant, LOLPE (rate 60, 20 DAA): 10
damage to plant, POAAN (rate 60, 20 DAA): 0
damage to plant, POLCO (rate 60, 20 DAA): 0
damage to plant, SINAR (rate 60, 20 DAA): 0
damage to plant, STEME (rate 60, 20 DAA): 0
damage to plant, VERPE (rate 60, 20 DAA): 0
damage to plant, ALOMY (rate 130, 20 DAA): 0
damage to plant, AVEFA (rate 130, 20 DAA): 0
damage to plant, BEAVA (rate 130, 20 DAA): 0
damage to plant, BROTE (rate 130, 20 DAA): 10
damage to plant, BRSNN (rate 130, 20 DAA): 0
damage to plant, CHEAL (rate 130, 20 DAA): 0
damage to plant, GALAP (rate 130, 20 DAA): 0
damage to plant, HORVW (rate 130, 20 DAA): 0
damage to plant, KCHSC (rate 130, 20 DAA): 0
damage to plant, LOLPE (rate 130, 20 DAA): 30
damage to plant, POAAN (rate 130, 20 DAA): 10
damage to plant, POLCO (rate 130, 20 DAA): 20
damage to plant, SINAR (rate 130, 20 DAA): 0
damage to plant, STEME (rate 130, 20 DAA): 0
damage to plant, VERPE (rate 130, 20 DAA): 0
damage to plant, ALOMY (rate 250, 20 DAA): 20
damage to plant, AVEFA (rate 250, 20 DAA): 0
damage to plant, BEAVA (rate 250, 20 DAA): 0
damage to plant, BROTE (rate 250, 20 DAA): 20
damage to plant, BRSNN (rate 250, 20 DAA): 10
damage to plant, CHEAL (rate 250, 20 DAA): 0
damage to plant, GALAP (rate 250, 20 DAA): 0
damage to plant, HORVW (rate 250, 20 DAA): 10
damage to plant, KCHSC (rate 250, 20 DAA): 0
damage to plant, LOLPE (rate 250, 20 DAA): 60
damage to plant, POAAN (rate 250, 20 DAA): 50
damage to plant, POLCO (rate 250, 20 DAA): 20
damage to plant, SINAR (rate 250, 20 DAA): 0
damage to plant, STEME (rate 250, 20 DAA): 0
damage to plant, VERPE (rate 250, 20 DAA): 0
damage to plant, ALOMY (rate 500, 20 DAA): 40
damage to plant, AVEFA (rate 500, 20 DAA): 10
damage to plant, BEAVA (rate 500, 20 DAA): 10
damage to plant, BROTE (rate 500, 20 DAA): 20
damage to plant, BRSNN (rate 500, 20 DAA): 20
damage to plant, CHEAL (rate 500, 20 DAA): 0
damage to plant, GALAP (rate 500, 20 DAA): 0
damage to plant, HORVW (rate 500, 20 DAA): 20
damage to plant, KCHSC (rate 500, 20 DAA): 0
damage to plant, LOLPE (rate 500, 20 DAA): 70
damage to plant, POAAN (rate 500, 20 DAA): 90
damage to plant, POLCO (rate 500, 20 DAA): 60
damage to plant, SINAR (rate 500, 20 DAA): 0
damage to plant, STEME (rate 500, 20 DAA): 60
damage to plant, VERPE (rate 500, 20 DAA): 0
